# Experimental data from publication PMC8313282 (Microbial Biotechnology, 2021).
# Target: T1, YHR112C (Saccharomyces cerevisiae, UniProt P38716)
# T1 sequence (P38716 1-378): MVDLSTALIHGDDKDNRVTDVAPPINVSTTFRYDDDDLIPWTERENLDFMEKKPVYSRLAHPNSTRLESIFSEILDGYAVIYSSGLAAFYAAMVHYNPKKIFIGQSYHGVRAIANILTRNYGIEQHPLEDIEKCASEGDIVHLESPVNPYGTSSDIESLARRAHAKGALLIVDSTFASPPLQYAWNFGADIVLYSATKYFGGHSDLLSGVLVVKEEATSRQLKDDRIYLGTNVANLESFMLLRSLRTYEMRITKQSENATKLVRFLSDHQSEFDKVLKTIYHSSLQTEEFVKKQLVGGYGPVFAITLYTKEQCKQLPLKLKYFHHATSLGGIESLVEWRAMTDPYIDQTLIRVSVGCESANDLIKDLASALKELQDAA
# Test: HPLC of L-Met depletion and alpha-ketobutyrate
# Assay type: biochemical
# Conditions: 50 mM Tris-HCl pH 8.0; 20 mM L-Met; 5 μM PLP; 30°C; 1 h; weak activity
compound,measurement,value
CSCC[C@H](N)C(=O)O [L‐Met],HPLC of L-Met depletion and alpha-ketobutyrate,while weak changes were observed for YHR112C
